Measured values: US20230073777A1, “CYCLIC-AMP RESPONSE ELEMENT BINDING PROTEIN (CBP) AND/OR ADENOVIRAL E1A BINDING PROTEIN OF 300 KDA (P300) DEGRADATION COMPOUNDS AND METHODS OF USE” (CULLGEN (SHANGHAI), INC., priority 2019, published 2023)
Like-named read-outs stand apart in the source and are kept apart here.

Legend:
[1] = tested on: LNCaP cells; experiment: LNCaP cell viability assay (CellTiter-Glo); type: cell-based; conditions: for IC50: Homo sapiens, 72 h, LNCaP prostate cancer cell viability inhibition, 3 days
Procedure, shortened: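 LNCaP cells, 5000/well, exposed to compounds in 12-point 3-fold serial dilution (top 10 μM) for 3 days. Viability by CellTiter-Glo luminescence, normalized to untreated cells; IC50 by least-squares nonlinear regression.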

[2] = molecular target: P300 (Homo sapiens, UniProt Q09472); experiment: Immunoblotting of P300 protein levels in LNCaP or 22RV1 cells; type: cell-based; set-up: LNCaP or 22RV1 cells that express CBP/P300 proteins were treated with GNE-781 or the bivalent compounds; endogenous in cells; host or cells: LNCaP (clone FGC) or 22RV1 cells; conditions: read-out: Degradation (10 nM)
Procedure, shortened: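 LNCaP or 22RV1 cells treated with compounds for indicated hours, DMSO as negative control. RIPA lysates resolved by SDS-PAGE and immunoblotted for P300 or CBP, tubulin or vinculin as loading control; chemiluminescent bands quantitated.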

[3] = percentage of inhibition of p300 at 10 nM (Table 3)
[4] = percentage of inhibition of p300 at 10 nM (Table 2)

Chain of P300 (Q09472 whole entry): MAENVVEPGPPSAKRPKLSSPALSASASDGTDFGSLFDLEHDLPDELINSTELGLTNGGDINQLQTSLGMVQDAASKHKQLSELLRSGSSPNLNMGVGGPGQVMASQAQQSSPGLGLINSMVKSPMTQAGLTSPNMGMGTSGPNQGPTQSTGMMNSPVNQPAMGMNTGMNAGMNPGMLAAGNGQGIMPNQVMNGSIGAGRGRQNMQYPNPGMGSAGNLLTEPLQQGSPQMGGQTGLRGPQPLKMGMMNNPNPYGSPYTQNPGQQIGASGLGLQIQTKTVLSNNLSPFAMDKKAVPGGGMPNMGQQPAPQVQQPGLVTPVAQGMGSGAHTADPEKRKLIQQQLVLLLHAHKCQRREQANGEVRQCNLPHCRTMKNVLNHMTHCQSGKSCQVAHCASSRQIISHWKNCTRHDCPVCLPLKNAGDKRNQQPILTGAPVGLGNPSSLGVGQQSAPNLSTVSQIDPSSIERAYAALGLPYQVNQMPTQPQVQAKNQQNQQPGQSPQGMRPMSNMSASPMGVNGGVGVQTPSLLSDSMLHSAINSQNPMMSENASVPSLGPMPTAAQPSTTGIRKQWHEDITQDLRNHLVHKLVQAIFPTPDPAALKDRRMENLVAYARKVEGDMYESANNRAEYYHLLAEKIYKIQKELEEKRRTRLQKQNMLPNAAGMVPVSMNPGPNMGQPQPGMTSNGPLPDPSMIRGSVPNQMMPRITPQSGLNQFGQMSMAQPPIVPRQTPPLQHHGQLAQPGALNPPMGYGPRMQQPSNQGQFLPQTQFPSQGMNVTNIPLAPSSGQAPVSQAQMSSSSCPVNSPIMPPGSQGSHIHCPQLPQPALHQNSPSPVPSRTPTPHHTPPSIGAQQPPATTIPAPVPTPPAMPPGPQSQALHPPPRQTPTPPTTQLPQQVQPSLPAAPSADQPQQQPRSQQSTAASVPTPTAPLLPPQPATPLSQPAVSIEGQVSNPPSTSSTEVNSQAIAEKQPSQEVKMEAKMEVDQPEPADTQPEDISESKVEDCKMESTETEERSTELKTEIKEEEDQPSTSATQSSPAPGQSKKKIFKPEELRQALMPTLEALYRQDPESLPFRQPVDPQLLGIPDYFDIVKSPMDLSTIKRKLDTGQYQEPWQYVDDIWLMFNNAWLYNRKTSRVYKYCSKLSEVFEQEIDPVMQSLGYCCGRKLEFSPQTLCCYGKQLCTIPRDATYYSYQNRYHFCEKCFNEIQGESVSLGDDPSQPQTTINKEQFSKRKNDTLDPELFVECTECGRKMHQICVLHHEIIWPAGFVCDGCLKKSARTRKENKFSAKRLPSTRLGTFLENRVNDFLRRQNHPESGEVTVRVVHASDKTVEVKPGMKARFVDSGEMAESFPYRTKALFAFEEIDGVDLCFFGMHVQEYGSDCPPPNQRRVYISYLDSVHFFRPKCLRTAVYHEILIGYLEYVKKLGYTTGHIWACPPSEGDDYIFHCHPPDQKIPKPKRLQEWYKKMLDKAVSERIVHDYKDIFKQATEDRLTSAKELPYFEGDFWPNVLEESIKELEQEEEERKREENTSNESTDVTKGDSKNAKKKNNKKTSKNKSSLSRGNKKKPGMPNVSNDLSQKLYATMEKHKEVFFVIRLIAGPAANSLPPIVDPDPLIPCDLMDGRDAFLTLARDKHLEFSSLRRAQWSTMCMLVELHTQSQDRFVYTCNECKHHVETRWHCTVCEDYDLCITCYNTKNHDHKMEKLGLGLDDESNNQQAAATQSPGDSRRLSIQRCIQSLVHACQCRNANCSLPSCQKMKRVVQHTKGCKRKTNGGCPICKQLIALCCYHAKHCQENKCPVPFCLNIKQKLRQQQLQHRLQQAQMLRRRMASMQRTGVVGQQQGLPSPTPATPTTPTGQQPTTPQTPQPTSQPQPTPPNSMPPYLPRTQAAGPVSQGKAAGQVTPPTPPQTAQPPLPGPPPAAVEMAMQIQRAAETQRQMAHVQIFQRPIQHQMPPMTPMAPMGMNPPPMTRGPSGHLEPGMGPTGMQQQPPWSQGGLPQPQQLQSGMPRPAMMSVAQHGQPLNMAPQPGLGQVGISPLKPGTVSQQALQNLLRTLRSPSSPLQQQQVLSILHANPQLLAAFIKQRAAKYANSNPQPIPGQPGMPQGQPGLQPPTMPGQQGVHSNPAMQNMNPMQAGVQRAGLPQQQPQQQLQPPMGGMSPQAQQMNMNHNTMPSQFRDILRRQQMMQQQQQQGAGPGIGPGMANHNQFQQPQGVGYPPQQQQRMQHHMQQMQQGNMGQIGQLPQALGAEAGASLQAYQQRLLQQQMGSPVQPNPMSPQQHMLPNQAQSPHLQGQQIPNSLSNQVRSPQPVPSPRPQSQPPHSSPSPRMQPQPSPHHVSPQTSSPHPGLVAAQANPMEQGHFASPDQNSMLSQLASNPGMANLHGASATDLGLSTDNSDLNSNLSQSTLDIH

Compound	IC50 ([1]; CellTiter-Glo (Table 3)) [nM]	inhibition at 0.01 µM [2, 3] [%]	IC50 ([1]; CellTiter-Glo (Table 2)) [nM]	inhibition at 0.01 µM [2, 4] [%]	viability of LNCaP cells ([1]; from 10 μM, 12-point 3-fold serial dilution, 3 days (FIG. 4))
CNC(=O)N1CCc2c(c(N3CCCc4cc(-c5cnn(CC(=O)NCCCCCNc6ccc7c(c6)C(=O)N(C6CCC(=O)NC6=O)C7=O)c5)c(C(F)F)cc43)nn2C2CCOCC2)C1 (centres unmarked) [P-019]			14.7	50 to 80	dose-dependently suppressed viability
CNC(=O)N1CCc2c(c(N3CCCc4cc(-c5cnn(C)c5)c(C(F)F)cc43)nn2C2CCN(C(=O)CCCCCCNc3ccc4c(c3)C(=O)N(C3CCC(=O)NC3=O)C4=O)CC2)C1 (centres unmarked) [P-006, 3-(7-(difluoromethyl)-6-(1-methyl-1H-pyrazol-4-yl)-3,4-dihydroquinolin-1(2H)-yl)-1-(1-(7-((2-(2,6-dioxopiperidin-3-yl)-1,3-dioxoisoindolin-5-yl)amino)heptanoyl)piperidin-4-yl)-N-methyl-1,4,6,7-tetrahydro-5H-pyrazolo[4,3-c]pyridine-5-carboxamide]			3.2	> 80	
CNC(=O)N1CCc2c(c(N3CCCc4cc(-c5cnn(CC(=O)NCCOCCOCCOCCOCCOCCNc6ccc7c(c6)C(=O)N(C6CCC(=O)NC6=O)C7=O)c5)c(C(F)F)cc43)nn2C2CCOCC2)C1 (centres unmarked) [P-032, 3-(7-(Difluoromethyl)-6-(1-(20-((2-(2,6-dioxopiperidin-3-yl)-1,3-dioxoisoindolin-5-yl)amino)-2-oxo-6,9,12,15,18-pentaoxa-3-azaicosyl)-1H-pyrazol-4-yl)-3,4-dihydroquinolin-1(2H)-yl)-N-methyl-1-(tetrahydro-2H-pyran-4-yl)-1,4,6,7-tetrahydro-5H-pyrazolo[4,3-c]pyridine-5-carboxamide]			601	< 20	
CNC(=O)N1CCc2c(c(N3CCCc4cc(-c5cnn(CC(=O)NCCCCC(=O)N[C@H](C(=O)N6C[C@H](O)C[C@H]6C(=O)NCc6ccc(-c7scnc7C)cc6)C(C)(C)C)c5)c(C(F)F)cc43)nn2C2CCOCC2)C1 [P-046, 3-(7-(Difluoromethyl)-6-(1-(2-((5-(((S)-1-((2S,4R)-4-hydroxy-2-((4-(4-methylthiazol-5-yl)benzyl)carbamoyl)pyrrolidin-1-yl)-3,3-dimethyl-1-oxobutan-2-yl)amino)-5-oxopentyl)amino)-2-oxoethyl)-1H-pyrazol-4-yl)-3,4-dihydroquinolin-1(2H)-yl)-N-methyl-1-(tetrahydro-2H-pyran-4-yl)-1,4,6,7-tetrahydro-5H-pyrazolo[4,3-c]pyridine-5-carboxamide]			9040	< 20	
CNC(=O)N1CCc2c(c(N3CCCc4cc(-c5cnn(CC(=O)NCCCCCCCNc6cccc7c6C(=O)N(C6CCC(=O)NC6=O)C7=O)c5)c(C(F)F)cc43)nn2C2CCOCC2)C1 (centres unmarked) [P-042]			39	< 20	

Now from value to molecule, other results behind:

IC50 ([1]; CellTiter-Glo (Table 3)) [nM]	inhibition at 0.01 µM [2, 3] [%]	IC50 ([1]; CellTiter-Glo (Table 2)) [nM]	inhibition at 0.01 µM [2, 4] [%]	Compound	viability of LNCaP cells ([1]; from 10 μM, 12-point 3-fold serial dilution, 3 days (FIG. 4))
0.1	> 80			CC(=O)N1CCc2c(c(N3CCCc4cc(-c5cnn(C)c5)c(C(F)F)cc43)nn2C2CCN(C(=O)CCCCCCCNc3ccc4c(c3)n(C)c(=O)n4C3CCC(=O)NC3=O)CC2)C1 (centres unmarked) [P-161]	
16.8	20 to 50			CC(=O)N1CCc2c(c(N3CCCc4cc(-c5cnn(C)c5)c(C(F)F)cc43)nn2C2CCN(CCCCCCCc3cccc4c3C(=O)N(C3CCC(=O)NC3=O)C4=O)CC2)C1 (centres unmarked) [P-132, 4-(7-(4-(5-Acetyl-3-(7-(difluoromethyl)-6-(1-methyl-1H-pyrazol-4-yl)-3,4-dihydroquinolin-1(2H)-yl)-4,5,6,7-tetrahydro-1H-pyrazolo[4,3-c]pyridin-1-yl)piperidin-1-yl)heptyl)-2-(2,6-dioxopiperidin-3-yl)isoindoline-1,3-dione]	
31.1	> 80			CC(=O)N1CCc2c(c(N3CCCc4cc(-c5cnn(C)c5)c(C(F)F)cc43)nn2C2CCN(C(=O)CCCCCNc3cccc4c3n(C)c(=O)n4C3CCC(=O)NC3=O)CC2)C1 (centres unmarked) [P-110, 3-(4-((6-(4-(5-acetyl-3-(7-(difluoromethyl)-6-(1-methyl-1H-pyrazol-4-yl)-3,4-dihydroquinolin-1(2H)-yl)-4,5,6,7-tetrahydro-1H-pyrazolo[4,3-c]pyridin-1-yl)piperidin-1-yl)-6-oxohexyl)amino)-3-methyl-2-oxo-2,3-dihydro-1H-benzo[d]imidazol-1-yl)piperidine-2,6-dione]	
